Reference: PubChem BioAssay (NCI)
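How tested: cells in 96-well plates exposed to compound for 48 hours at five concentrations. TGI: concentration producing complete growth inhibition.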

Columns and labels:
Assay in all cases: growth of human tumour cells (NCI), 48 h
[1] = tested on: MDA-MB-231 breast
[2] = tested on: K-562 leukemia
[3] = tested on: TK-10 renal
[4] = tested on: HCT-15 colon
[5] = tested on: LOX IMVI melanoma
[6] = tested on: HOP-92 NSCLC
[7] = tested on: HOP-62 NSCLC
[8] = tested on: COLO 205 colon
[9] = tested on: SNB-19 CNS
[10] = tested on: SR leukemia
[11] = tested on: NCI-H23 lung
[12] = tested on: IGROV1 ovarian
[13] = tested on: RPMI-8226 leukemia
[14] = tested on: M14 melanoma
[15] = tested on: NCI-H460 lung
[16] = tested on: SNB-75 CNS
[17] = tested on: ACHN renal
[18] = tested on: SK-MEL-2 melanoma
[19] = tested on: MDA-N
[20] = tested on: EKVX NSCLC
[21] = tested on: SK-MEL-5 melanoma
[22] = tested on: PC-3 prostate
[23] = tested on: CAKI-1 renal
[24] = tested on: HCC-2998 colon
[25] = tested on: HL-60(TB) leukemia
[26] = tested on: HT29 colon
[27] = tested on: U251 CNS
[28] = tested on: T-47D breast
[29] = tested on: 786-0 renal
[30] = tested on: SW-620 colon
[31] = tested on: MALME-3M melanoma
[32] = tested on: HS 578T breast
[33] = tested on: SF-268 CNS
[34] = tested on: NCI/ADR-RES ovarian
[35] = tested on: OVCAR-5 ovarian
[36] = tested on: SN12C renal
[37] = tested on: SK-OV-3 ovarian
[38] = tested on: MOLT-4 leukemia
[39] = tested on: A549 NSCLC
[40] = tested on: SF-295 CNS
[41] = tested on: UACC-257 melanoma
[42] = tested on: KM12 colon
[43] = tested on: UO-31 renal
[44] = tested on: DU-145 prostate
[45] = tested on: RXF 393 renal
[46] = tested on: BT-549 breast
[47] = tested on: CCRF-CEM leukemia
[48] = tested on: A498 renal
[49] = tested on: NCI-H522 lung
[50] = tested on: MCF7 breast
[51] = tested on: OVCAR-4 ovarian
[52] = tested on: UACC-62 melanoma
[53] = tested on: SK-MEL-28 melanoma
[54] = tested on: HCT-116 colon
[55] = tested on: MDA-MB-435
[56] = tested on: OVCAR-8 ovarian

`CSc1nc(=O)c2nc(-c3cccs3)c(-c3cccs3)nc2n1C` gave a TGI [1] greater than 100 µM, a TGI [2] greater than 100 µM and a TGI [3] greater than 100 µM. It also gave a TGI [4] greater than 100 µM, a TGI [5] greater than 100 µM and a TGI [6] of 83.5 µM. The TGI [7] was 47.2 µM, the TGI [8] was greater than 100 µM and the TGI [9] was greater than 100 µM. The TGI [10] was greater than 100 µM, the TGI [11] was greater than 100 µM and the TGI [12] was greater than 100 µM. The TGI [13] was greater than 100 µM, the TGI [14] was greater than 100 µM and the TGI [15] was greater than 100 µM. It also gave a TGI [16] of 49.6 µM, a TGI [17] greater than 100 µM and a TGI [18] greater than 100 µM. The TGI [19] was greater than 100 µM, the TGI [20] was greater than 100 µM and the TGI [21] was greater than 100 µM. The TGI [22] was greater than 100 µM, the TGI [23] was greater than 100 µM and the TGI [24] was greater than 100 µM. For the same molecule, the TGI [25] was greater than 100 µM, the TGI [26] was greater than 100 µM and the TGI [27] was greater than 100 µM. The TGI [28] was 80.4 µM, the TGI [29] was greater than 100 µM and the TGI [30] was greater than 100 µM. For the same molecule, the TGI [31] was greater than 100 µM, the TGI [32] was greater than 100 µM and the TGI [33] was greater than 100 µM. For the same molecule, the TGI [34] was greater than 100 µM, the TGI [35] was greater than 100 µM and the TGI [36] was greater than 100 µM. It also gave a TGI [37] greater than 100 µM, a TGI [38] greater than 100 µM and a TGI [39] greater than 100 µM. The TGI [40] was greater than 100 µM, the TGI [41] was greater than 100 µM and the TGI [42] was greater than 100 µM. For the same molecule, the TGI [43] was greater than 100 µM, the TGI [44] was greater than 100 µM and the TGI [45] was 59.6 µM. It also gave a TGI [46] greater than 100 µM, a TGI [47] greater than 100 µM and a TGI [48] greater than 100 µM. It also gave a TGI [49] of 89.1 µM, a TGI [50] greater than 100 µM and a TGI [51] greater than 100 µM. For the same molecule, the TGI [52] was greater than 100 µM, the TGI [53] was greater than 100 µM and the TGI [54] was greater than 100 µM. The TGI [55] was greater than 100 µM and the TGI [56] was greater than 100 µM.
